From patent US11697646B2, “Triazole N-linked carbamoyl cyclohexyl acids as LPA antagonists” (BRISTOL-MYERS SQUIBB COMPANY, priority 2017, dated 2023)
Structures can show the parent of a compound that is named as a salt. Where two headings read alike, the source gives them in different places.

Molecular target: T1, human LPA1 (Homo sapiens, UniProt Q92633)
T1 construct: expressed in transfected cells; host or cells: Chinese hamster ovary (CHO) cells
Assay: LPA1 functional antagonist assay (calcium flux)
Assay type: cell-based
Details: read-out: hLPA1 IC50
Protocol: The effectiveness of compounds of the present invention as LPA1 inhibitors can be determined in an LPA1 functional antagonist assay as follows:
The cells were then equilibrated to room temperature for 30 minutes before the assay. […] IC50 values were determined by fitting data to a 4-parameter logistic equation (GraphPad Prism, San Diego Calif.).

[1] = human LPA1 functional antagonist assay
[2] = CHO cells overexpressing human LPA1, calcium flux induced by 10 nM LPA

T1 sequence (Q92633 whole entry): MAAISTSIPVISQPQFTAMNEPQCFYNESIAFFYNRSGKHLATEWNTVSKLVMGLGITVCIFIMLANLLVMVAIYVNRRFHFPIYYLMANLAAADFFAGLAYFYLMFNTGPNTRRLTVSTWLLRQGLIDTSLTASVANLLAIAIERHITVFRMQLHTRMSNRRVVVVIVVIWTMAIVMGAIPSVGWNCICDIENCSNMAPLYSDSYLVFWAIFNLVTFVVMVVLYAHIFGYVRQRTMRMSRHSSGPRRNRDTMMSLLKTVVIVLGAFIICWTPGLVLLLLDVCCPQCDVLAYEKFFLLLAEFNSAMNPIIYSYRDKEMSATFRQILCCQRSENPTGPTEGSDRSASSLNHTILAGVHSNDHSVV

Row | SMILES | IC50 [1] [µM] | IC50 [2] [µM]
1 | Cc1nc(-c2nnn(C)c2CNC(=O)OCC(C)CC(F)F)ccc1O[C@H]1CCC[C@H](C(=O)O)C1 (stereo partly drawn) [Example 196, (1S,3S)-3-((6-(5-((((4,4-difluoro-2-methylbutoxy)carbonyl)amino)methyl)-1-methyl-1H-1,2,3-triazol-4-yl)-2-methylpyridin-3-yl)oxy)cyclo-hexane-1-carboxylic acid] | 0.083 | –
2 | Cc1nc(-c2nnn(C)c2CNC(=O)OCCC(C)(F)F)ccc1O[C@H]1CCC[C@H](C(=O)O)C1 [Example 202, (1S,3S)-3-((6-(5-((((3,3-difluorobutoxy)carbonyl)amino)methyl)-1-methyl-1H-1,2,3-triazol-4-yl)-2-methylpyridin-3-yl)oxy) cyclo-hexane-1-carboxylic acid] | 0.086 | –
3 | Cc1nc(-c2nnn(C)c2CN(C)C(=O)OCC(C)C)ccc1O[C@H]1CCC[C@H](C(=O)O)C1 [Example 203, (1S,3S)-3-((6-(5-(((isobutoxy-carbonyl)(methyl)amino)methyl)-1-methyl-1H-1,2,3-triazol-4-yl)-2-methylpyridin-3-yl)oxy)cyclo-hexane-1-carboxylic acid] | 0.091 | –
4 | Cc1nc(-c2nnn(C)c2CNC(=O)OC[C@@H]2CC2(F)F)ccc1O[C@H]1CCC[C@H](C(=O)O)C1 [Example 208, (1S,3S)-3-((6-(5-((((((S)-2,2-difluorocyclopropyl)methoxy)carbonyl)amino)methyl)-1-methyl-1H-1,2,3-triazol-4-yl)-2-methylpyridin-3-yl)oxy)cyclohexane-1-carboxylate diethylammonium salt] | – | 0.057
5 | CCCCOC(=O)Nc1c(-c2nc(C)c(O[C@H]3CCC[C@H](C(=O)O)C3)cc2F)nnn1C [Example 217] | – | 0.072
6 | Cc1nc(-c2nnn(C)c2NC(=O)OCC2CC2)c(F)cc1O[C@H]1CCC[C@H](C(=O)O)C1 [Example 218, (1S,3S)-3-{[6-(5-{[(cyclopropylmethoxy)carbonyl]amino}-1-methyl-1H-1,2,3-triazol-4-yl)-5-fluoro-2-methylpyridin-3-yl]oxy} cyclohexane-1-carboxylic acid] | – | 0.3
7 | Cc1nc(-c2nnn(C)c2NC(=O)OCC(C)C)c(F)cc1O[C@H]1CCC[C@H](C(=O)O)C1 [Example 219, (1S,3S)-3-((5-fluoro-6-(5-((isobutoxycarbonyl)amino)-1-methyl-1H-1,2,3-triazol-4-yl)-2-methylpyridin-3-yl)oxy)cyclohexane-1-carboxylic acid] | – | 0.152
8 | CC(C)OC(=O)Nc1c(-c2ccc(O[C@H]3CCC[C@H](C(=O)O)C3)cn2)nnn1C [Example 220, (1S,3S)-3-((6-(5-((isopropoxy-carbonyl)amino)-1-methyl-1H-1,2,3-triazol-4-yl)pyridin-3-yl)oxy)cyclohexane-1-carboxylic acid] | – | 0.389
9 | CCCOC(=O)Nc1c(-c2ccc(O[C@H]3CCC[C@H](C(=O)O)C3)cn2)nnn1C [Example 221, (1S,3S)-3-((6-(1-methyl-5-((pro-poxy-carbonyl)amino)-1H-1,2,3-triazol-4-yl)pyridin-3-yl)oxy)cyclohexane-1-carboxylic acid] | – | 0.042

Second part, the compound after the results:

Row | IC50 [1] [µM] | IC50 [2] [µM] | SMILES
10 | 0.072 | – | Cc1nc(-c2nnn(C)c2CNC(=O)OCCC2(C)CC2)ccc1O[C@H]1CCC[C@H](C(=O)O)C1 [Example 195, (1S,3S)-3((2-methyl-6-(1-methyl-5-((((2-(1-methylcyclopropyl)ethoxy)carbonyl)amino)methyl)-1H-1,2,3-triazol-4-yl)pyridin-3-yl)oxy)cyclohexane-1-carboxylic acid]
11 | 0.016 | – | Cc1nc(-c2nnn(C)c2CNC(=O)OCCC(C)C)ccc1O[C@H]1CCC[C@H](C(=O)O)C1 [Example 197, (1S,3S)-3-((6-(5-((((isopentyloxy)carbonyl)amino)methyl)-1-methyl-1H-1,2,3-triazol-4-yl)-2-methyl-pyridin-3-yl)oxy)cyclohexane-1-carboxylic acid]
12 | 0.045 | – | Cc1nc(-c2nnn(C)c2CNC(=O)OCC(F)(F)C(F)(F)F)ccc1O[C@H]1CCC[C@H](C(=O)O)C1 [Example 198]
13 | 0.312 | – | CC(=O)CCCOC(=O)NCc1c(-c2ccc(O[C@H]3CCC[C@H](C(=O)O)C3)c(C)n2)nnn1C [Example 199, (1S,3S)-3((2-methyl-6-(1-methyl-5-(((((4-oxopentyl)oxy)carbonyl)amino)methyl)-1H-1,2,3-triazol-4-yl)pyridin-3-yl)oxy)cyclohexane-1-carboxylic acid]
14 | 0.042 | – | Cc1nc(-c2nnn(C)c2CNC(=O)OC2CC3(CC3)C2)ccc1O[C@H]1CCC[C@H](C(=O)O)C1 [Example 201, (1S,3S)-3-((2-methyl-6-(1-methyl-5-((((spiro[2.3]hexan-5-yloxy)carbonyl)amino)methyl)-1H-1,2,3-triazol-4-yl)pyridin-3-yl)oxy)cyclohexane-1-carboxylic acid]
15 | 0.333 | – | Cc1nc(-c2nnn(C)c2CN(C)C(=O)OCC2CC2)ccc1O[C@H]1CCC[C@H](C(=O)O)C1 [Example 205, (1S,3S)-3-((6-(5-((((cyclopropylmethoxy)carbonyl)(methyl)amino)methyl)-1-methyl-1H-1,2,3-triazol-4-yl)-2-methyl-pyridin-3-yl)oxy)cyclohexane-1-carboxylic acid, TFA salt]
16 | – | 0.071 | Cc1nc(-c2nnn(C)c2CNC(=O)OCCCC(C)(F)F)ccc1O[C@H]1CCC[C@H](C(=O)O)C1 [Example 206, (1S,3S)-3-((6-(5-(((((4,4-difluoropentyl)oxy)carbonyl)amino)methyl)-1-methyl-1H-1,2,3-triazol-4-yl)-2-methylpyridin-3-yl)oxy)cyclohexane-1-carboxylicacid]
17 | – | 0.112 | Cc1nc(-c2nnn(C)c2CNC(=O)OCC2CCC2)c(F)cc1O[C@H]1CCC[C@H](C(=O)O)C1 [Example 212, (1S,3S)-3-((6-(5-((((cyclobutylmethoxy)carbonyl)amino)methyl)-1-methyl-1H-1,2,3-triazol-4-yl)-5-fluoro-2-methylpyridin-3-yl)oxy)cyclohexane-1-carboxylic acid]
18 | – | 0.382 | Cc1nc(-c2nnn(C)c2CNC(=O)OCC(C)C)c(F)cc1O[C@H]1CCC[C@H](C(=O)O)C1 [Example 213]
19 | – | 0.129 | Cc1nc(-c2nnn(C)c2CNC(=O)OC2CC3(CC3)C2)c(F)cc1O[C@H]1CCC[C@H](C(=O)O)C1 [Example 214, (1S,3S)-3-((5-fluoro-2-methyl-6-(1-methyl-5-((((spiro[2.3]hexan-5-yloxy)carbonyl)amino)methyl)-1H-1,2,3-triazol-4-yl)pyridin-3-yl)oxy)cyclohexane-1-carboxylic acid]
20 | – | 0.112 | Cc1nc(-c2nnn(C)c2CNC(=O)OCC2(C)CC2)c(F)cc1O[C@H]1CCC[C@H](C(=O)O)C1 [Example 215, (1S,3S)-3-((5-fluoro-2-methyl-6-(1-methyl-5-(((((1-methylcyclopropyl)methoxy)carbonyl)amino)methyl)-1H-1,2,3-triazol-4-yl)pyridin-3-yl)oxy)cyclohexane-1-carboxylic acid]
21 | – | 0.046 | CCC1(COC(=O)NCc2c(-c3nc(C)c(O[C@H]4CCC[C@H](C(=O)O)C4)cc3F)nnn2C)CC1 [Example 216, (1S,3S)-3-((6-(5-(((((1-ethylcyclo-propyl)methoxy)carbonyl)amino)methyl)-1-methyl-1H-1,2,3-triazol-4-yl)-5-fluoro-2-methylpyridin-3-yl)oxy)cyclohexane-1-carboxylic acid]
